Test results reported in the Kinase Knowledgebase extract (Sharma et al. 2016).

Biological target: CDK2 (UniProt P24941)
Test: Enzyme Assay

Row | Structure (SMILES) | IC50
1 | Clc1cncc(-n2cnc3ccccc32)n1 | 35 µM
2 | CSc1cncc(Nc2ccccc2)n1 | 3 µM
3 | Clc1ccc(Nc2cncc(Cl)n2)nc1 | 8 µM
4 | c1cn(-c2cncc(-n3ccnc3)n2)cn1 | 105 µM
5 | Clc1cncc(NC(c2ccccc2)c2ccccc2)n1 | 23 µM
6 | NCCCN(c1cncc(Cl)n1)C1CCCCC1 | 4 µM
7 | O[C@@H]1CCCC[C@H]1CN(c1cncc(Cl)n1)C1CCCCC1 | 12 µM
8 | CC(C)CNc1cncc(Cl)n1 | 105 µM
9 | Clc1cncc(NCc2cc(Oc3cncc(Cl)n3)no2)n1 | 40 µM
10 | Clc1cncc(NC2CCCCC2)n1 | 27 µM
11 | Clc1cncc(-n2cccn2)n1 | 82 µM
12 | Clc1cncc(N2CCc3ccccc3C2)n1 | 98 µM
13 | Clc1cncc(Nc2ccccn2)n1 | 17 µM
14 | Clc1cncc(Nc2cccnc2)n1 | 27 µM
15 | c1ccc(Nc2cncc(-n3ccnc3)n2)cc1 | 5.5 µM
16 | FC(F)(F)COc1cncc(Nc2ccccc2)n1 | 17 µM
17 | Oc1ccc(Nc2cncc(Cl)n2)cc1 | 24 µM
18 | Fc1ccc(Nc2cncc(Cl)n2)cc1 | 16 µM
19 | Clc1cncc(NCCc2c[nH]cn2)n1 | 73 µM
20 | Cc1cc2cc(CNc3cncc(Cl)n3)ccc2[nH]1 | 14 µM

Row | Structure (SMILES) | IC50
21 | Clc1cncc(N(Cc2ccccc2)C2CCCCC2)n1 | 64 µM
22 | O=c1[nH]c2ccccc2n1-c1cncc(Cl)n1 | 10 µM
23 | NS(=O)(=O)CCNc1cncc(Cl)n1 | 60 µM
24 | Clc1cncc(NCCNc2cncc(Cl)n2)n1 | 43 µM
25 | Clc1cncc(N2CCN(c3ccccc3)CC2)n1 | 102 µM
26 | CCOC(=O)c1ccc(CNc2cncc(Cl)n2)o1 | 36 µM
27 | Clc1cncc(NC2CCCC2)n1 | 52 µM
28 | Clc1cncc(Nc2ccccc2)n1 | 9 µM
29 | CC(=O)Nc1ccc(Nc2cncc(Cl)n2)cc1 | 15 µM
30 | Clc1cncc(NC[C@H]2CCCN2)n1 | 5 µM
31 | CC(C)c1nccn1-c1cncc(Nc2ccccc2)n1 | 12 µM
32 | O=C(O)c1ccc(Nc2cncc(Cl)n2)nc1 | 68 µM
33 | Clc1cncc(NCc2ccc(Cl)s2)n1 | 32 µM
34 | Oc1cccc(Nc2cncc(Cl)n2)c1 | 6 µM
35 | OCCN(c1cncc(Cl)n1)C1CCCCC1 | 54 µM
36 | NS(=O)(=O)c1cccc(Nc2cncc(Cl)n2)c1 | 7 µM
37 | Cc1cc(Nc2cncc(Cl)n2)[nH]n1 | 49 µM
38 | CC(C)(C)c1cc(N)n(-c2cncc(Cl)n2)n1 | 147 µM
39 | NC(=O)c1sccc1Nc1cncc(Cl)n1 | 9 µM
